For data set [1], the target named is T1, OXA-48 (Klebsiella pneumoniae, UniProt Q6XEC0).
T1 construct: pOPINF-OXA-48^(23-265) (previously cloned as described in Cahill et al); hexahistidine tag with 3C protease site (pOPINF) (N, cleaved yes); made in house; host or cells: E. coli BL21-DE3
The conditions noted are these: cited from earlier work; for Binding affinities and complex residence times against OXA-48: in words.

Data set [2] addresses T1, OXA-48. As to the kind of experiment: IC50 determination, inhibition of nitrocefin hydrolysis by OXA-48. Type of data set: biochemical. The conditions noted are these: for Fold difference in IC50, nacubactam versus avibactam, OXA-48: ratio nacubactam IC50 / avibactam IC50.
The target in data set [3] is T2, OXA-163 (Klebsiella pneumoniae, UniProt Q6XEC0, DEL214-217/S212D). As to the kind of experiment: IC50 determination, inhibition of nitrocefin hydrolysis by OXA-163. Type of data set: biochemical. Also noted: genes encoding the mature OXA-163^23-261 (GenBank HQ700343); hexahistidine tag with 3C protease site (pOPINF) (N, cleaved yes); made in house; host or cells: E. coli BL21-DE3.

The target of data set [4] is T3, OXA-405 (Klebsiella pneumoniae, UniProt Q6XEC0, DEL213-216). As to the kind of experiment: IC50 determination, inhibition of nitrocefin hydrolysis by OXA-405. Type of data set: biochemical. The arrangement: genes encoding the mature OXA-163^23-261 (GenBank HQ700343) and OXA-405^23-261 (GenBank KM589641) open reading frames; hexahistidine tag with 3C protease site (pOPINF) (N, cleaved yes); made in house; host or cells: E. coli BL21-DE3.

The test system of data set [5] is OXA-163. As to the kind of experiment: IC50 determination, inhibition of nitrocefin hydrolysis by OXA-163. Type of data set: biochemical. Conditions: IC50 OXA-48 / IC50 OXA-163.
Data set [6] deals with OXA-405. As to the kind of experiment: IC50 determination, inhibition of nitrocefin hydrolysis by OXA-405. Type of data set: biochemical. The conditions noted are these: IC50 OXA-48 / IC50 OXA-405.
Data set [7] deals with T3, OXA-405. The conditions noted are these: 1 nM enzyme, pH 7.6.
Experimental: (§1) All enzyme kinetics experiments were performed in 50 mM HEPES pH 7.6, 50 mM NaPO4 buffer supplemented with 50 mM NaHCO3 and 50 μg mL^−1 bovine serum albumin (BSA) in 96-well half area plates (Greiner, 675801).
In data set [8] the target is T2, OXA-163. The conditions noted are these: 1 nM enzyme, pH 7.6.
Experimental: as §1
Data set [9] deals with O=C(Cc1cccs1)N[C@@H]1C(=O)N2C(C(=O)O)=C(/C=C/c3ccc([N+](=O)[O-])cc3[N+](=O)[O-])CS[C@H]12. As to the kind of experiment: purified protein, by the assay type. Conditions: other: 1 nM enzyme, pH 7.6.
Data set [10] has as its target OXA-405 β-lactamase (mature, residues 23-261). As to the kind of experiment: crystal structure; X-ray structures of the purified enzymes, uncomplexed and soaked with nacubactam or avibactam; crystals grown in 0.1 M HEPES pH 7.5 or 0.1 M Tris pH 8.5-9.0 with PEG 400 or PEG 550; homodimer seen in the crystal, chloride ion at the dimer interface.
The data set “crystal structure” concerns the molecule itself. As to the kind of experiment: crystal structure.
Where [11] appears, read: ratio nacubactam IC50 / avibactam IC50.

Take `O=C(NO[C@@H]1CCNC1)[C@@H]1CC[C@@H]2CN1C(=O)N2OS(=O)(=O)O` [FPI-1465]: the “Binding affinities and complex residence times against OXA-48” value on OXA-48 [1] is “lower binding affinities and complex residence times”.

As to `O=C(NNC(=O)[C@@H]1CC[C@@H]2CN1C(=O)N2OS(=O)(=O)O)C1CNC1` [FPI-1602], the “Binding affinities and complex residence times against OXA-48” value at OXA-48 [1] is “lower binding affinities and complex residence times”.

The IC50 is the concentration needed to halve the response being measured. On to `NCCONC(=O)[C@@H]1CC[C@@H]2CN1C(=O)N2OS(=O)(=O)O` [nacubactam], for which the 50% inhibitory concentration (IC50) at OXA-48 [2] (1 nM enzyme pre-incubated 10 min with inhibitor, 75 μM nitrocefin, pH 7.6, read-out: IC50 against OXA-48) came out at 19.9 µM; at OXA-163 [3], 1.23 µM; against OXA-405 [4] it was 10.6 µM. The “Fold difference in IC50, nacubactam versus avibactam, OXA-48” value on OXA-48 [2] was 77 fold; on OXA-48 [2] (listed as Nacubactam), 76.6 fold. Also, the “Fold difference in IC50, nacubactam versus avibactam, OXA-163” value on OXA-163 [3] (setting [11]) was found to be 6.2 fold. For the same molecule, the “Fold difference in IC50, nacubactam versus avibactam, OXA-405” value on OXA-405 [4] (setting [11]) amounted to 10.7 fold. At OXA-48 [1], the “Decrease in enzyme : inhibitor residence time (t1/2) compared to avibactam, OXA-48” value is “approximately 37 fold”. In addition, the “Increase in dissociation rate (koff) compared to avibactam, OXA-48” value on OXA-48 [1] was approximately 36 fold. The “Increase in inhibition potency towards OXA-163 compared to OXA-48” value with OXA-163 [5] came to 16.2 fold. In addition, the “Increase in inhibition potency towards OXA-405 compared to OXA-48” value with OXA-405 [6] came out at 1.9 fold.

For orientation: Km means the concentration of substrate that gives half-maximal velocity. Regarding `O=C(Cc1cccs1)N[C@@H]1C(=O)N2C(C(=O)O)=C(/C=C/c3ccc([N+](=O)[O-])cc3[N+](=O)[O-])CS[C@H]12` [nitrocefin], the “kcat, nitrocefin hydrolysis by OXA-405” value on OXA-405 [7] amounted to 113.9 s⁻¹. In addition, the Km was 33.9 µM on OXA-405 [7] (read-out: KM, nitrocefin hydrolysis by OXA-405) and 13.4 µM at OXA-163 [8] (read-out: KM, nitrocefin hydrolysis by OXA-163). In addition, the “kcat, nitrocefin hydrolysis by OXA-163” value at OXA-163 [8] was found to be 64.5 s⁻¹.

What is called kcat is the maximal rate divided by the concentration of active sites. For orientation: kcat/Km means the turnover number divided by the Michaelis constant. As for OXA-48 (Klebsiella pneumoniae), in data set [9], the Michaelis constant (Km) was 114.4 µM, the kcat stood at 515.0 s⁻¹ and the specificity constant (kcat/Km) worked out at 5.2e+06 M⁻¹ s⁻¹.

A word on the stoichiometry N: it is a count of units in the complex or per binding partner. “OXA-405 β-lactamase (mature, residues 23-261) (enzyme)”: the stoichiometry N in data set [10] turned out to be 2.

B1: OXA-163 β-lactamase (mature, residues 23-261) (enzyme)
chain: KEWQENKSWNAHFTEHKSQGVVVLWNENKQQGFTNNLKRANQAFLPASTFKIPNSLIALDLGVVKDEHQVFKWDGQTRDIATWNRDHNLITAMKYSVVPVYQEFARQIGEARMSKMLHAFDYGNEDISGNVDSFWLDGGIRISATEQISFLRKLYHNKLHVSERSQRIVKQAMLTEANGDYIIRAKTGYDTKIGWWVGWVELDDNVWFFAMNMDMPTSDGLGLRQAITKEVLKQEKIIP
notes: source: E. coli BL21-DE3, purified (Ni-NTA, 3C protease cleavage, second Ni-NTA, Superdex 75 SEC)
B1: the “stoichiometry N” value in the data set “crystal structure” came out at 2.

B2: OXA-48 β-lactamase (residues 23-265) (enzyme)
chain: KEWQENKSWNAHFTEHKSQGVVVLWNENKQQGFTNNLKRANQAFLPASTFKIPNSLIALDLGVVKDEHQVFKWDGQTRDIATWNRDHNLITAMKYSVVPVYQEFARQIGEARMSKMLHAFDYGNEDISGNVDSFWLDGGIRISATEQISFLRKLYHNKLHVSERSQRIVKQAMLTEANGDYIIRAKTGYSTRIEPKIGWWVGWVELDDNVWFFAMNMDMPTSDGLGLRQAITKEVLKQEKIIP
notes: also called OXA-48^(23-265); OXA-48 carbapenemase; source: E. coli BL21-DE3, purified (Ni-NTA, 3C protease cleavage, second Ni-NTA, Superdex 75 SEC)
With B2, in the data set “crystal structure”, the “stoichiometry N” value was 2.

Source of the values: paper PMC12415477, “Electrostatic interactions influence diazabicyclooctane inhibitor potency against OXA-48-like β-lactamases” (RSC Medicinal Chemistry, 2025).
